The subject of one assay is PC-3. The assay is described as follows: IC50 in cancer cell lines (Table 1), PC-3. The note with it: Homo sapiens, PC-3 (Prostate). In kind it is cell-based.
Another assay relates to Du-145. The assay is described as follows: IC50 in cancer cell lines (Table 1), Du-145. In kind it is cell-based. The note with it: Homo sapiens, Du-145 (Prostate).
Another assay deals with CRL-1976. The assay is described as follows: IC50 in cancer cell lines (Table 1), CRL-1976. Format: cell-based. As to conditions: CRL-1976 (Sarcoma), incubation 24 hours, FCS yes, 0.2*10^6/ml plated cells.
Assay [1] relates to pancreas tumor cells (CRL-1687). The assay is described as follows: Pancreas tumor (CRL-1687) growth in CD1-nude mice. As to conditions: 5×10^6 CRL-1687 cells id, 30 mg/kg ip in 10% CE beginning day 1, up to 35 days. In kind it is in vivo. Here is the method:
In order to examine the applicability of the compounds of the invention as an anti-cancerous drug, the inventors next examined the effect of i.p. administration of AD2750, on pancreas tumor. Therefore, CD1-nude mice were injected id with 5×10^6 pancreas tumor cells (CRL-1687). The mice were treated ip, with AD2750, beginning day 1, 30, mg/kg in 0.2 ml 10% CE, for up to 35 days. Tumor size was measured and calculated every 5-7 days beginning day 8.

The subject of the next assay is Pancreas tumor cells. The assay is described as follows: Pancreas tumor cell viability after combined treatment (MTT test). As to conditions: 24 h; for cell viability (MTT), combination of AD2730 and ADYZ197: 2 μM AD2730 combined with 10 μM ADYZ197. Format: cell-based. Here is the method:
FIG. 3A-3B: The viability of pancreatic cells using different drug combination for 24, h (MTT test)
The inventors next examined the effect of combining the compound of the invention with known chemotherapeutic drugs. Pancreas tumor cells were incubated with 1 μM taxol and 2 μM AD2750, (separately and in combination). The results are shown in the left part of the graph, in FIG. 3A, as percent of viable cells (checked by MTT). A combination of 20 μM fluorouracil and 8 μM AD2750 is shown in the right part of the graph, in FIG. 3A.
The inventors next examined the potential anti-cancerous effect of other compounds of Formula II. Therefore, pancreas tumor cells were incubated with 2 μM AD2730 and 10 μM ADYZ197, separately and in combination. The results are presented in the left part of the graph, in FIG. 3B, as percent of viable cells (checked by MTT).
Background: Tetrazolium assays rely on reduction of a dye to a coloured formazan, in cell work by metabolically active cells.

Another assay relates to CCL-224. The assay is described as follows: IC50 in cancer cell lines (Table 1), CCL-224. Format: cell-based. The note with it: CCL-224 (Colon), incubation 24 hours, FCS no, 0.2*10^6/ml plated cells.
In a further assay the test system is MEL624. The assay is described as follows: IC50 in cancer cell lines (Table 1), MEL624. The note with it: MEL624 (Melanoma), incubation 24 hours, FCS yes, 0.1 × 10^6/ml plated cells. In kind it is cell-based.
The next assay deals with CRL-5891. The assay is described as follows: IC50 in cancer cell lines (Table 1), CRL-5891. Format: cell-based. The note with it: CRL-5891 (NSCLC, Lung carcinoma), incubation 24 hours, FCS no, 0.1 × 10^6/ml plated cells.
Another assay deals with BxPC-3 tumor. Kind of assay: BxPC-3 human pancreatic tumor xenograft efficacy study. The note with it: BxPC-3 s.c. in athymic NCr-nu/nu mice. In kind it is in vivo. The text has this: BxPC-3 Human Pancreatic Tumor Model
Thirty-to-forty mg tumor fragments of BxPC-3 tumor from a continuous in vivo passage were implanted subcutaneously (sc) into athymic NCr-nu/nu mice using 12-gauge trocar needles.
Animals were purchased from NCI-approved animal facilities (4-5 weeks old) and acclimated in the laboratories one week prior to experimentation. The animals were housed in microisolator cages in a 12-hour light/dark cycle. Animals received filter-sterilized water and sterile rodent food ad libitum. Cages were changed a minimum of twice weekly. The animals were weighed twice weekly and observed daily (for about sixty days of experiment) for clinical signs.
Tumor Measurements and Body Weights: Tumors measurements and animal body weights are recorded twice weekly. Tumor volume was determined by caliper measurements (mm) and using the formula for an ellipsoid sphere: Length×Width^2/2=Volume (mm^3)
This commonly used formula is also used to calculate tumor weight, assuming unit density (1 mm^3=1 mg).
Parameters Evaluated: For sc tumors trials, a T-C value based on 1, 2, 3 or 4 tumor volume doubling time (days), as appropriate for the particular trial, was made. This evaluation is based on tumor size of the control animals at the end of the treatment period. A T/C (%) or T/C (%) value was determined. […]
On the technique in general: Xenograft models place foreign cells or tissue in a host animal.

In another assay the test system is CRL-5803. The assay is described as follows: IC50 in cancer cell lines (Table 1), CRL-5803. The note with it: CRL-5803 (NSCLC, Lung carcinoma), incubation 24 hours, FCS yes, 0.1 × 10^6/ml plated cells. In kind it is cell-based.
A further assay relates to LNCaP. Kind of assay: IC50 in cancer cell lines (Table 1), LNCaP. In kind it is cell-based. As to conditions: Homo sapiens, LNCaP (Prostate).
The next assay relates to CRL-1687. Kind of assay: IC50 in cancer cell lines (Table 1), CRL-1687. Format: cell-based. The note with it: CRL-1687 (Pancreas), incubation 24 hours, FCS yes, 0.2*10^6/ml plated cells.
In the next assay the test system is MDA-MB-435 cells. The assay is described as follows: MDA-MB-435 survival experiment in nude mice. Format: in vivo. As to conditions: CD1-nude mice injected iv with 3×10^6 MDA-MB-435 cells; 20 mg/kg in the drinking water beginning day 1; to day 100. The method, then: CD1-nude mice were injected iv with 3×10^6 MDA-MB-435 cells, which are usually considered as metastatic human breast cancer, but recently are also considered as model cells for melanoma. The mice were treated with AD2750, 20 mg/kg in the drinking water beginning day 1. On day 100, the remaining mice were sacrificed, and the pathology was determined.

For the next assay, the system named is HL-60. Kind of assay: IC50 in cancer cell lines (Table 1), HL-60. Format: cell-based. The note with it: Homo sapiens; HL-60 (Promyelocytic leukemia), incubation 24 hours, FCS no, 0.1 × 10^6/ml plated cells.
[2] abbreviates: incubation 24 hours, FCS no, 0.1 × 10^6/ml plated cells.
[3] abbreviates: incubation 24 hours, FCS yes, 0.1 × 10^6/ml plated cells.
The mark [4] stands for this setting: incubation 72 hours, FCS yes, 0.05 × 10^6/ml plated cells.
[5] abbreviates: incubation 48 hours, FCS yes, 0.1 × 10^6/ml plated cells.

Molecules are shown by their SMILES.

What is called IC50 is the concentration that inhibits the measured activity by half. A high value points to a need for much substance.

For the compound `CCCCCCCCCCNC(CO)(CO)CO` [ADYZ195, 2-(decylamino)-2-(hydroxymethyl)propane-1,3-diol], the concentration for half-maximal inhibition (IC50) with PC-3 (setting [2]) and with Du-145 (setting [2]) was more than 50 µM in each case.

As to `CCCCCCCCCCCCCCNC(CO)CO` [AD2750, 2-(tetradecylamino)propane-1,3-diol], the IC50 in the assay on CRL-1976 is 5 µM; in the assay on CCL-224 it was 13 µM; in the assay on PC-3 (setting [3]) it was 12.2 µM; in the assay on PC-3 (setting [4]), 6.8 µM; with MEL624, 9 µM; with Du-145 (setting [2]), 3.3 µM. Further, the IC50 worked out at 7.5 µM in the assay with Du-145 (setting [4]); 8 µM in the assay with CRL-5891; 11 µM in the assay with CRL-5803; 4.9 µM with LNCaP (LNCaP, 24 h, incubation 24 hours, FCS no, 0.1 × 10^6/ml plated cells); 15.2 µM in the assay with LNCaP (LNCaP, 24 h, incubation 24 hours, FCS yes, 0.1 × 10^6/ml plated cells); 8.7 µM in the assay on LNCaP (LNCaP, 48 h, incubation 48 hours, FCS yes, 0.1 × 10^6/ml plated cells). In addition, the IC50 turned out to be 3.9 µM in the assay with LNCaP (LNCaP, 72 h, incubation 72 hours, FCS yes, 0.05 × 10^6/ml plated cells) and 15 µM in the assay on CRL-1687. Further, the “reduction in tumor volume” value in assay [1] is listed as “about 5 folds”. Moreover, the “tumor cell viability (MTT), combination with Taxol” value in the assay on Pancreas tumor cells (2 μM AD2750 combined with 1 μM taxol) was “markedly reduced tumor cell viability”. Also, the “tumor cell viability (MTT), combination with fluorouracil” value in the assay on Pancreas tumor cells (8 μM AD2750 combined with 20 μM fluorouracil) is given as “markedly reduced tumor cell viability”. In the assay on BxPC-3 tumor (20 or 30 mg/kg i.p. daily for 28 days, vs vehicle), the “tumor volume, monotherapy” value is reported as “clearly reduced tumor volume in a dose dependent manner”. In the assay on BxPC-3 tumor (AD2750 20 or 30 mg/kg with Camptosar 60 or 30 mg/kg i.p. for 28 days), the “tumor volume, combination with Camptosar” value is “significant reduction in tumor volume”. Also, in the assay with MDA-MB-435 cells, the “survival of treated animals” value is recorded as “increased survival”. In addition, the tumor incidence entry in the assay with MDA-MB-435 cells is on record as “significantly reduced tumor incidence”.

Consider `CCCCCCCCCCCCCCCCCCNC(CO)(CO)CO` [ADYZ197, 2-(octadecylamino)-2-(hydroxymethyl)propane-1,3-diol], for which the 50% inhibitory concentration (IC50) in the assay with CRL-1976 stood at 20 µM; in the assay on PC-3 (setting [5]) it was 8.2 µM; in the assay on PC-3 (setting [4]), 4.4 µM; with MEL624 it was 3 µM; in the assay with Du-145 (setting [3]), 7.5 µM; with HL-60 it was 15 µM. Besides, the 50% inhibitory concentration (IC50) in the assay on CRL-5891 is 10 µM; in the assay on CRL-5803, 20 µM; with LNCaP (setting [2]), 42.9 µM; in the assay with LNCaP (setting [5]), 23.9 µM; in the assay on LNCaP (incubation 72 hours, FCS yes, 0.5 × 10^6/ml plated cells) it was 3 µM; in the assay with CRL-1687 it was 22 µM. In the assay on Pancreas tumor cells, the “cell viability (MTT), combination of AD2730 and ADYZ197” value was “significant synergistic effect on reduction of cell viability”. Further, in the assay on Pancreas tumor cells (10 μM ADYZ197 combined with 20 μM fluorouracil), the “tumor cell viability (MTT), combination with fluorouracil” value is on record as “significant reduction of tumor cell viability”.

Consider `CCCCNC(CO)C(O)c1ccccc1` (centres unmarked) [AD2730, 2-(butylamino)-1-phenylpropane-1,3-diol], for which, in the assay with Pancreas tumor cells, the “cell viability (MTT), combination of AD2730 and ADYZ197” value was “significant synergistic effect on reduction of cell viability”.

Source of the values: patent publication US8962891B2, “Synthetic analogs of sphingolipids” (Hadasit Medical Research Services & Development Limited, priority 2007, dated 2015).
